Source: PubChem BioAssay (NCI)
Values joined by “and” are separate entries in the source; they are usually repeats but may differ in a detail not shown here. Equal values may be shown once.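 Each compound was tested at five concentrations against cells in 96-well plates for 48 hours. Here, GI50 denotes the concentration required for 50% inhibition of growth. Definition used: TGI = concentration required for complete inhibition of growth.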

Assays:
Test in all cases: NCI tumour cell line growth inhibition, 48 h
DLD-1 colon = system: DLD-1 colon
DMS 273 small cell lung = system: DMS 273 small cell lung
HOP-18 NSCLC = system: HOP-18 NSCLC
MDA-N = system: MDA-N
P388 leukemia = system: P388 leukemia
P388/ADR leukemia = system: P388/ADR leukemia
SN12K1 renal = system: SN12K1 renal
SNB-78 CNS = system: SNB-78 CNS
XF 498 CNS = system: XF 498 CNS
LXFL 529 NSCLC = system: LXFL 529 NSCLC
T-47D breast = system: T-47D breast

SMILES	TGI (DLD-1 colon) [µM]	TGI (DMS 273 small cell lung) [µM]	TGI (HOP-18 NSCLC)	TGI (MDA-N) [µM]	TGI (P388 leukemia) [µM]	TGI (P388/ADR leukemia) [µM]	TGI (SN12K1 renal) [µM]	TGI (SNB-78 CNS) [µM]	TGI (XF 498 CNS) [µM]	GI50 (HOP-18 NSCLC) [µM]	TGI (LXFL 529 NSCLC) [µM]	TGI (T-47D breast) [µM]
CC(=O)O[C@H]1C(=O)O[C@@H]2C[C@H]3C(C)=CC(=O)[C@@H](O)[C@]3(C)[C@H]3[C@@]4(O)OC[C@]32[C@@H]1[C@@H](C)[C@H]4O	0.403	0.0682	1.53 µM	0.127	0.555	7.51	0.0696	0.384	0.243			
CNNCc1ccc(C(=O)NC(C)C)cc1	> 500	> 500	139 µM and > 500 µM	> 500	> 500	> 500	> 456	> 500	> 500	> 500	> 500	> 500
